# B1: glial cell line-derived neurotrophic factor (protein, UniProt P39905 78-211, looked up)
# Glial cell line-derived …: SPDKQMAVLPRRERNRQAAAANPENSRGKGRRGQRGKNRGCVLTAIHLNVTDLGLGYETKEELIFRYCSGSCDAAETTYDKILKNLSRNRRLVSDKVGQACCRPIAFDDDLSFLDDNLVYHILRKHSAKRCGCI
# notes: glial cell line-derived neurotrophic factor, gives maximum protection in the dopamine uptake assay
# What was measured:
# Assay type in all cases: cell-based, rat
# [1] = tested on: cultured cortical neurons; assay: Neurite outgrowth (total neurite length per cell) in cultured cortical neurons; design: unit of the concentration uncertain; conditions: 72 hours
# Description: Dissociated cortical neuron cultures were prepared as previously described (Pong et al., cited above, 2001). Briefly, embryonic day 15 rat fetuses were collected and dissected in ice-cold PBS. Dissected cortices were pooled together and transferred to an enzymatic dissociation medium containing papain. After 30 minutes, the tissue was mechanically triturated with a fire-polished glass Pasteur pipette. Single-cell suspensions in complete media were seeded on poly-L-ornithine and laminin coated 96-well plates. After 24 hours, cultures were treated with various concentrations of the compound of formula I for 72 hours. The cultures were then fixed and stained with an anti-tubulin primary antibody (TUJ-1) and a fluorescent-tagged secondary antibody. Neurite outgrowth was determined by using the Enhanced Neurite Outgrowth (ENO) algorithm with the Cellomics ArrayScan and expressed as total neurite length per cell.
# [2] = tested on: cultured dopaminergic neurons; assay: High-affinity 3H-dopamine uptake after MPP+ induced toxicity
# Description: Mesencephalic dopaminergic neuron cultures were prepared as previously described in Pong et al., J Neurochem. 69: 986–994 (1997). Embryonic day 15 (E15) rat fetuses were collected and dissected in ice-cold phosphate-buffered saline (PBS). The ventral piece of tissue compromising the mesencephalic dopaminergic region was dissected out. Dissected pieces of tissue were pooled together and transferred to an enzymatic dissociation medium containing 20 IU/ml papain in Earle's balanced salt solution (Worthington Biochemical, Freehold, N.J., U.S.A.) and incubated for 60 minutes at 37° C. After enzymatic dissociation, the papain solution was aspirated and the tissue mechanically triturated with a fire-polished glass Pasteur pipette in complete medium [equal volumes of minimum essential medium (MEM) and F-12 nutrient mixture (Gibco BRL) supplemented with 0.1 mg/ml apotransferrin and 2.5 μg/ml insulin] containing 2,000 IU/ml DNase and 10 mg/ml ovomucoid protease inhibitor.
# For dopamine uptake experiments, single-cell suspensions in complete media were seeded on poly-L-ornithine and laminin coated 24-well plates. The cultures were maintained for seven days prior to experimentation. Cultures were pretreated with various concentrations of the compound of formula (I) (washed with PBS and diluted with media to concentrations of 1 nM to 1000 nM) for 24 hours, then exposed to 10 μM the neurotoxin 1-methyl-4-phenylpyridinium (MPP^+) for 1 hour to assess the neuroprotective effect of the compound of formula (I) in cell culture. Following the 1 hour incubation, media was exchanged three times and fresh compound was added for an additional 48 hours.
# More particularly, after 48 hours growth of mesencephalic dopaminergic neuron cultures following MPP^+ exposure, high-affinity ^3H-dopamine uptake was performed using a modified method described by Prochiantz et al., Nature 293: 570–572 (1981). Cultures were washed with pre-warmed phosphate-buffered saline (PBS) containing 5.6 mM glucose and 1 mM ascorbic acid. Cultures were then incubated for 15 minutes at 37° C. with 50 nM ^3H-dopamine (31 Ci/mmol, Du Pont-NEN, Wilmington, Del., U.S.A.). The cultures were washed twice with buffer and lysed with 0.5 N NaOH. The lysate was transferred to a scintillation vial containing Ultima Gold scintillation cocktail and radioactivity was determined with a liquid scintillation counter. Alternatively, culture lysates can be washed twice with buffer, incubated for 2 hours at room temperature with Optiphase Supermix scintillation cocktail (Wallac Scintillation Products, Gaithersburg, Md., USA), and radioactivity measured with a liquid scintillation counter.
# [3] = tested on: cultured cortical neurons; assay: Neurofilament content in cultured cortical neurons
# Description: Dissociated cortical neuron cultures were prepared as previously described [Pong et al., Exp Neurol. 2001 September; 171(1):84–97 (2001)]. Briefly, embryonic day 15 rat fetuses were collected and dissected in ice-cold PBS. Dissected cortices were pooled together and transferred to an enzymatic dissociation medium containing papain. After 30 min, the tissue was mechanically triturated with a fire-polished glass Pasteur pipette. Single-cell suspensions in complete media were seeded on poly-L-ornithine and laminin coated 96-well plates. 24 hours later, cultures were treated with various concentrations of compound of formula (I) for 72 hours. The cultures were then fixed and stained with a neurofilament primary antibody and a peroxidase-tagged secondary antibody. A peroxidase substrate (K-Blue Max) was added and the colorimetric change was measure on a colorimetric plate reader.
# [4] = tested on: cultured dorsal root ganglia; assay: Neurite outgrowth (total neurite length per cell) in cultured dorsal root ganglia; design: unit of the concentration uncertain; conditions: 72 hours
# Description: Dissociated dorsal root ganglia cultures were prepared as previously described [A. Wood et al., “Stimulation of neurite outgrowth by immunophilin ligands: quantitative analysis by Cellomics Array scan” Society for Neuroscience (2004), abstract 104.3] Briefly, postnatal day 3–5 rat pups were euthanized. The spinal columns were removed and individual dorsal root ganglia (DRG) were dissected out. Dissected DRG were pooled together and transferred to an enzymatic dissociation medium containing papain. After 60 minutes, the tissue was mechanically triturated with a fire-polished glass Pasteur pipette. Single-cell suspensions in complete media were seeded on poly-L-ornithine and laminin coated 96-well plates. After 24 hours, cultures were treated with various concentrations of the compound of formula I for 72 hours. The cultures were then fixed and stained with an anti-tubulin primary antibody (TUJ-1) and a fluorescent-tagged secondary antibody. Neurite outgrowth was determined by using the Enhanced Neurite Outgrowth (ENO) algorithm with the Cellomics ArrayScan and expressed as total neurite length per cell.
molecule,measurement,setting,value
"CC/C1=C\CC(/C(C)=C/C(C)C(C)O)OC(=O)C2CCCN2C(=O)C(=O)C2(O)OC(CCC2C)CC(O)C(C)C(O)CC(O)CC(O)/C(C)=C/C(C)CC(C)C1O (stereo not shown) [Compound (I), prolylmeridamycin]",Total Neurite Length (% Above Control),[1]; 10 nM,30% Above Control
same,Total Neurite Length (% Above Control),[1]; 100 nM,51% Above Control
same,Total Neurite Length (% Above Control),[1]; 1 (unit uncertain),120% Above Control
same,Total Neurite Length (% Above Control),[1]; 10 (unit uncertain),178% Above Control
same,3H-DOPAMINE UPTAKE (% UNTREATED CONTROL),"[2]; 1 nM compound, 24 h pretreatment, 10 μM MPP+ 1 hour, 48 h after",45% UNTREATED CONTROL
same,3H-DOPAMINE UPTAKE (% UNTREATED CONTROL),"[2]; 10 nM compound, 24 h pretreatment, 10 μM MPP+ 1 hour, 48 h after",52% UNTREATED CONTROL
same,3H-DOPAMINE UPTAKE (% UNTREATED CONTROL),"[2]; 100 nM compound, 24 h pretreatment, 10 μM MPP+ 1 hour, 48 h after",61% UNTREATED CONTROL
same,3H-DOPAMINE UPTAKE (% UNTREATED CONTROL),"[2]; 1000 nM compound, 24 h pretreatment, 10 μM MPP+ 1 hour, 48 h after",72% UNTREATED CONTROL
same,EC50,"[2]; Rattus norvegicus, Neuron, relative to maximum protection (84% uptake) afforded by 10 ng/mL GDNF, read-out: EC50, neuroprotection against MPP+-induced neurotoxicity",110 nM
same,potency compared with meridamycin,[2]; similar study with meridamycin,more potent
same,NEUROFILAMENT CONTENT (FOLD-INCREASE ABOVE UNTREATED CONTROL),"[3]; 10 nM, 72 hours",1.54 FOLD-INCREASE ABOVE UNTREATED CONTROL
same,NEUROFILAMENT CONTENT (FOLD-INCREASE ABOVE UNTREATED CONTROL),"[3]; 100 nM, 72 hours",2.22 FOLD-INCREASE ABOVE UNTREATED CONTROL
same,NEUROFILAMENT CONTENT (FOLD-INCREASE ABOVE UNTREATED CONTROL),"[3]; 1 μM, 72 hours",2.34 FOLD-INCREASE ABOVE UNTREATED CONTROL
same,NEUROFILAMENT CONTENT (FOLD-INCREASE ABOVE UNTREATED CONTROL),"[3]; 10 μM, 72 hours",2.26 FOLD-INCREASE ABOVE UNTREATED CONTROL
same,EC50,"[3]; Rattus norvegicus, Cortical neurone, 72 hours, neurofilament content, read-out: EC50, increased neuronal survival in cultured cortical neurons",21 nM
same,potency compared with meridamycin,[3]; similar study with meridamycin,more potent
same,Total Neurite Length (% Above Control),[4]; 10 nM,2% Above Control
same,Total Neurite Length (% Above Control),[4]; 100 nM,7% Above Control
same,Total Neurite Length (% Above Control),[4]; 1 (unit uncertain),21% Above Control
same,Total Neurite Length (% Above Control),[4]; 10 (unit uncertain),44% Above Control
"C[n+]1ccc(-c2ccccc2)cc1 [MPP^+, 1-methyl-4-phenylpyridinium, reference compound]",3H-DOPAMINE UPTAKE (% UNTREATED CONTROL),"[2]; 10 μM MPP+ for 1 hour, no test compound",40% UNTREATED CONTROL
B1,maximum protection (% uptake),"[2]; 10 ng/mL GDNF, MPP+-induced neurotoxicity",84 % uptake

# — US7247650B2, “Macrolides and methods for producing same” (Wyeth, priority 2004, dated 2007)
